Where two headings read alike, the source gives them in different places.
Legend:
SW1990 = test: In vitro anti-proliferative activity (NBB assay), SW1990; format: cell-based, human; settings: 72 h
Protocol: (§1) Cells (4×10^3 cells/well) were seeded in a microtiter plate (96 wells) and incubated overnight before the treatment. […] After the media was removed, the cells were fixed with formaldehyde (3%; 50 μL) in PBS and stained with NBB reagent (0.05%, 0.1 M sodium acetate, 9% acetic acid; 50 μL) for overnight. The stained cells in each well were washed thrice gently with deionized water and solubilized in sodium hydroxide solution (50 mM; 100 μL). The cell viability was determined by measuring the absorbance of 620 nm in each well by microplate reader. The experiments were repeated in triplicate.

MDA-MB-231 = test: In vitro anti-proliferative activity (NBB assay), MDA-MB-231; format: cell-based; settings: Table 1; 72 h; read-out: IC50 MDA-MB-231 breast
Protocol: as §1

A549 = test: In vitro anti-proliferative activity (NBB assay), A549; format: cell-based; settings: Table 1; 72 h; read-out: IC50 A549 lung
Protocol: as §1

HCT116 = test: In vitro anti-proliferative activity (NBB assay), HCT116; format: cell-based; settings: Table 1; 72 h; read-out: IC50 HCT116 colon
Protocol: as §1

SKBR3 = test: In vitro anti-proliferative activity (NBB assay), SKBR3; format: cell-based; settings: 72 h
Protocol: as §1

BxPC3 = test: In vitro anti-proliferative activity (NBB assay), BxPC3; format: cell-based, human; settings: 72 h
Protocol: as §1

HCC827 = test: In vitro anti-proliferative activity (NBB assay), HCC827; format: cell-based, human; settings: 72 h
Protocol: as §1

HT29 = test: In vitro anti-proliferative activity (NBB assay), HT29; format: cell-based; settings: Table 1; 72 h; read-out: IC50 HT29 colon
Protocol: as §1

NCI-H460 = test: In vitro anti-proliferative activity (NBB assay), NCI-H460; format: cell-based; settings: Table 1; 72 h; read-out: IC50 NCI-H460 lung
Protocol: as §1

SKOV3 = test: In vitro anti-proliferative activity (NBB assay), SKOV3; format: cell-based; settings: Table 1; 72 h; read-out: IC50 SKOV3 ovarian
Protocol: as §1

MHCC97L = test: In vitro anti-proliferative activity (NBB assay), MHCC97L; format: cell-based; settings: Table 1; 72 h; read-out: IC50 MHCC97L liver
Protocol: as §1

Calu3 = test: In vitro anti-proliferative activity (NBB assay), Calu3; format: cell-based, human; settings: 72 h
Protocol: as §1

panel of cell lines = test: NBB assay, summary over the panel of cell lines; format: cell-based
Protocol: as §1

PANC1 = test: In vitro anti-proliferative activity (NBB assay), PANC1; format: cell-based; settings: Table 1; 72 h; read-out: IC50 PANC1 pancreas
Protocol: as §1

HEK293 = test: In vitro anti-proliferative activity (NBB assay), HEK293; format: cell-based, human; settings: Table 1; 72 h; read-out: IC50 HEK293 kidney
Protocol: as §1

NCI-N87 = test: In vitro anti-proliferative activity (NBB assay), NCI-N87; format: cell-based; settings: Table 1; 72 h; read-out: IC50 NCI-N87 gastric
Protocol: as §1

[1] = test system: TROP2-overexpressed cancer cells (HCC827, Calu3, BxPC3, SW1990, SKBR3); test: NBB assay, summary over TROP2-overexpressed cancer cells; format: cell-based; settings: all the cells of Table 2
Protocol: as §1

[2] = test system: TROP2-overexpressed cancer cells (HCC827, Calu3, BxPC3, SW1990); test: Flow cytometric binding study, TROP2-overexpressed cells; format: cell-based, human; settings: flow cytometry, 4° C., 1 h
Protocol: Cells (2×10^5 cells/tube) were suspended in FACS staining buffer (2% FBS in PBS) into a 1.5 mL eppendorf tube. They were incubated with Sacituzumab, ADC-Au or IgG control respectively in staining buffer (100 μL) at 4° C. After 1 h, the cell suspensions were centrifuged at 1500 rpm for 3 min at 4° C. and washed with staining buffer (1 mL) twice to discard unbound antibodies. The cells were then incubated with Alexa Fluor 594 goat anti-human secondary antibody at 4° C. for 1 h and then subject to centrifugation. The cells were washed twice again and were resuspended in staining buffer. The mean fluorescence intensities (MFI) were measured using Beckman Cytoflex S Flow Cytometer.

[3] = Table 1, read-out: IC50 SW1990 pancreas
[4] = Table 1, read-out: IC50 SKBR3 breast
[5] = Table 1, read-out: IC50 BxPC3 pancreas
[6] = Table 1, read-out: IC50 HCC827 lung
[7] = Table 1, read-out: IC50 Calu3 lung

Compound | IC50 (SW1990; [3]) [µM] | IC50 (MDA-MB-231) [µM] | IC50 (A549) [µM] | IC50 (HCT116) [µM] | IC50 (SKBR3; [4]) [µM] | IC50 (BxPC3; [5]) [µM] | IC50 (HCC827; [6]) [µM] | IC50 (HT29) [µM] | IC50 (NCI-H460) [µM] | IC50 (SKOV3) [µM] | IC50 (MHCC97L) [µM] | IC50 (Calu3; [7]) [µM] | IC50 (PANC1) [µM] | IC50 (HEK293) [µM] | IC50 (NCI-N87) [µM] | other results
O=C(O)c1ccc(C2=c3ccc4[n]3[Au-]35[n]6c(ccc6C(c6ccccc6)=C6C=CC2=[N+]63)C(c2ccccc2)=C2C=CC(=[N+]25)C=4c2ccccc2)cc1.[Cl-] (centres unmarked) [AuCOOH] | 2.19 | 0.71 | 0.69 | 0.71 | 0.27 | 0.84 | 1.77 | 0.64 | 0.42 | 2.89 | 2.65 | 1.76 | 2.43 | 0.65 | 1.31 | cytotoxicity / potency compared with the other gold complexes (panel of cell lines): lowest cytotoxicity
C1=CC2=[N+]3C1=C(c1ccccc1)c1ccc4[n]1[Au-]31[n]3c(ccc3=C(c3ccccc3)C3=[N+]1C(=C4c1ccccc1)C=C3)=C2c1ccccc1.Cl [AuTPP, gold (III) tetraphenylporphyrin, reference compound] | 0.17 | 0.18 | 0.09 | 0.15 | 0.08 | 0.08 | 0.14 | 0.12 | 0.12 | 0.09 | 0.15 | 0.29 | 0.1 | 0.13 | 0.1 | –
Sacituzumab: TROP2-targeted monoclonal antibody (MCE) | – | – | – | – | – | – | – | – | – | – | – | – | – | – | – | IC50 (SW1990; Table 2, Example 1 (Sacituzumab ADC), read-out: IC50 SW1990): > 2 µM; IC50 (SKBR3; Table 2, Example 1 (Sacituzumab ADC), read-out: IC50 SKBR3): > 2 µM; cell growth inhibition [1]: not obvious; IC50 (BxPC3; Table 2, Example 1 (Sacituzumab ADC), read-out: IC50 BxPC3): > 2 µM; IC50 (HCC827; Table 2, Example 1 (Sacituzumab ADC), read-out: IC50 HCC827): > 2 µM; IC50 (Calu3; Table 2, Example 1 (Sacituzumab ADC), read-out: IC50 Calu3): > 2 µM; specific binding to TROP2-overexpressed cancer cells [2]: significant specific-binding
